Results taken from ChEMBL document CHEMBL5385873, “Analogues of natural products yaequinolones as potential inflammatory inhibitors: Design, synthesis and biological evaluation” (Eur J Med Chem, 2023).
Activity calls are given as the source filed them. The rule behind the calls is not given here.

What was measured:
Type in all cases: functional, cell-based
RAW264.7 [1] = experiment: Cytotoxicity against mouse RAW264.7 cells assessed as reduction in cell viability at <50 uM incubated for 24 hrs by MTT assay
RAW264.7 [2] = experiment: Antiinflammatory activity in mouse RAW264.7 cells assessed as inhibition of LPS-induced NO production at 1 uM incubated for 24 hrs
RAW264.7 [3] = experiment: Antiinflammatory activity in mouse RAW264.7 cells assessed as inhibition of LPS-induced NO production at 0.1 uM incubated for 24 hrs
RAW264.7 [4] = experiment: Antiinflammatory activity in mouse RAW264.7 cells assessed as inhibition of LPS-induced NO production at 0.05 uM incubated for 24 hrs
RAW264.7 [5] = experiment: Antiinflammatory activity in mouse RAW264.7 cells assessed as inhibition of LPS-induced TNF-alpha expression at 0.1 uM measured after 24 hrs by ELISA method
RAW264.7 [6] = experiment: Antiinflammatory activity in mouse RAW264.7 cells assessed as reduction in LPS-induced IL-6 level at 0.05 uM measured after 24 hrs by ELISA method
RAW264.7 [7] = experiment: Antiinflammatory activity in mouse RAW264.7 cells assessed as inhibition of LPS-induced NO production at 2 uM incubated for 24 hrs
RAW264.7 [8] = experiment: Cytotoxicity against mouse RAW264.7 cells assessed as reduction in cell viability at 2 to 10 uM incubated for 24 hrs by MTT assay; details: dose 2-10 µM
RAW264.7 [9] = experiment: Cytotoxicity against mouse RAW264.7 cells assessed as reduction in cell viability at 10 uM incubated for 24 hrs by MTT assay
RAW264.7 [10] = experiment: Antiinflammatory activity in mouse RAW264.7 cells assessed as inhibition of LPS-induced NO production at 0.2 uM incubated for 24 hrs
RAW264.7 [11] = experiment: Antiinflammatory activity in mouse RAW264.7 cells assessed as inhibition of LPS-induced TNF-alpha expression at 0.2 uM measured after 24 hrs by ELISA method
RAW264.7 [12] = experiment: Antiinflammatory activity in mouse RAW264.7 cells assessed as reduction in LPS-induced IL-6 level at 0.2 uM measured after 24 hrs by ELISA method

Row | Compound | Activity (RAW264.7 [1]) | Activity (RAW264.7 [2]) | Activity (RAW264.7 [3]) | Activity (RAW264.7 [4]) | further results
1 | CO[C@@H]1C(=O)Nc2ccc3c(c2[C@@]1(O)c1ccccc1)O[C@@](C)(CCC=C(C)C)C=C3 | inactive |  |  |  | 
2 | CO[C@@H]1C(=O)Nc2ccc3c(c2[C@@]1(O)c1ccccc1)O[C@](C)(CCC=C(C)C)C=C3 | inactive | Active | Active | inactive | Activity (RAW264.7 [5]): inactive; Activity (RAW264.7 [6]): Active
3 | CO[C@H]1C(=O)Nc2ccc3c(c2[C@]1(O)c1ccccc1)O[C@@](C)(CCC=C(C)C)C=C3 | inactive |  |  |  | 
4 | CO[C@H]1C(=O)Nc2ccc3c(c2[C@]1(O)c1ccccc1)O[C@](C)(CCC=C(C)C)C=C3 | inactive | Active | Active | inactive | Activity (RAW264.7 [5]): inactive; Activity (RAW264.7 [6]): Active
5 | COc1ccc([C@@]2(O)c3c(ccc4c3O[C@@](C)(CCC=C(C)C)C=C4)NC(=O)[C@@H]2OC)cc1 | inactive |  |  |  | 
6 | COc1ccc([C@@]2(O)c3c(ccc4c3O[C@](C)(CCC=C(C)C)C=C4)NC(=O)[C@@H]2OC)cc1 | inactive |  |  |  | 
7 | COc1ccc([C@]2(O)c3c(ccc4c3O[C@@](C)(CCC=C(C)C)C=C4)NC(=O)[C@H]2OC)cc1 | inactive |  |  |  | 
8 | COc1ccc([C@]2(O)c3c(ccc4c3O[C@](C)(CCC=C(C)C)C=C4)NC(=O)[C@H]2OC)cc1 | inactive | Active |  | inactive | 
9 | COc1ccc2c(c1)c(CC(=O)O)c(C)n2C(=O)c1ccc(Cl)cc1 | inactive |  |  |  | Activity (RAW264.7 [7]): inactive
10 | CO[C@@H]1C(=O)Nc2ccc3c(c2[C@@]1(O)c1ccc(Br)cc1)O[C@@](C)(CCC=C(C)C)C=C3 (racemic) |  |  |  |  | Activity (RAW264.7 [8]): Active
11 | CO[C@@H]1C(=O)Nc2ccc3c(c2[C@@]1(O)c1ccc(Br)cc1)O[C@](C)(CCC=C(C)C)C=C3 (racemic) | inactive | Active |  | inactive | 
12 | CO[C@@H]1C(=O)Nc2ccc3c(c2[C@@]1(O)c1ccc(C(F)(F)F)cc1)O[C@@](C)(CCC=C(C)C)C=C3 (racemic) |  | Active | Active | inactive | Activity (RAW264.7 [8]): Active; Activity (RAW264.7 [5]): inactive
13 | CO[C@@H]1C(=O)Nc2ccc3c(c2[C@@]1(O)c1ccc(C(F)(F)F)cc1)O[C@](C)(CCC=C(C)C)C=C3 (racemic) | inactive | Active |  | inactive | 
14 | CO[C@@H]1C(=O)Nc2ccc3c(c2[C@@]1(O)c1ccc(C)cc1)O[C@@](C)(CCC=C(C)C)C=C3 (racemic) | inactive |  |  |  | 
15 | CO[C@@H]1C(=O)Nc2ccc3c(c2[C@@]1(O)c1ccc(C)cc1)O[C@](C)(CCC=C(C)C)C=C3 (racemic) | inactive |  |  |  | 
16 | CO[C@@H]1C(=O)Nc2ccc3c(c2[C@@]1(O)c1ccc(Cl)cc1)O[C@@](C)(CCC=C(C)C)C=C3 (racemic) | inactive |  |  |  | 
17 | CO[C@@H]1C(=O)Nc2ccc3c(c2[C@@]1(O)c1ccc(Cl)cc1)O[C@](C)(CCC=C(C)C)C=C3 (racemic) | inactive |  |  |  | 
18 | CO[C@@H]1C(=O)Nc2ccc3c(c2[C@@]1(O)c1ccc(F)cc1)O[C@@](C)(CCC=C(C)C)C=C3 (racemic) | inactive |  |  |  | 
19 | CO[C@@H]1C(=O)Nc2ccc3c(c2[C@@]1(O)c1ccc(F)cc1)O[C@](C)(CCC=C(C)C)C=C3 (racemic) | inactive |  |  |  | 
20 | CO[C@@H]1C(=O)Nc2ccc3c(c2[C@@]1(O)c1ccc([N+](=O)[O-])cc1)O[C@@](C)(CCC=C(C)C)C=C3 (racemic) | inactive | Active | Active | inactive | Activity (RAW264.7 [5]): inactive; Activity (RAW264.7 [6]): Active
21 | CO[C@@H]1C(=O)Nc2ccc3c(c2[C@@]1(O)c1ccc([N+](=O)[O-])cc1)O[C@](C)(CCC=C(C)C)C=C3 (racemic) | inactive | Active | Active | inactive | Activity (RAW264.7 [5]): inactive
22 | CO[C@@H]1C(=O)Nc2ccc3c(c2[C@@]1(O)c1cccc(Br)c1)O[C@@](C)(CCC=C(C)C)C=C3 (racemic) | inactive | Active | Active | inactive | 

Row | Compound | Activity (RAW264.7 [1]) | Activity (RAW264.7 [2]) | Activity (RAW264.7 [3]) | Activity (RAW264.7 [4]) | further results
23 | CO[C@@H]1C(=O)Nc2ccc3c(c2[C@@]1(O)c1cccc(Br)c1)O[C@](C)(CCC=C(C)C)C=C3 (racemic) | inactive | Active | Active | inactive | Activity (RAW264.7 [5]): inactive; Activity (RAW264.7 [6]): Active
24 | COc1ccc([C@]2(O)c3c(ccc4c3O[C@@](C)(CCC=C(C)C)C=C4)N(C)C(=O)[C@H]2OC)cc1 (racemic) | inactive | Active |  | inactive | 
25 | COc1ccc([C@]2(O)c3c(ccc4c3O[C@@](C)(CCC=C(C)C)C=C4)N(Cc3ccc(Cl)cc3)C(=O)[C@H]2OC)cc1 (racemic) | inactive | Active | Active | inactive | 
26 | COc1ccc([C@]2(O)c3c(ccc4c3O[C@@](C)(CCC=C(C)C)C=C4)N(Cc3cccc(Br)c3)C(=O)[C@H]2OC)cc1 (racemic) | inactive | Active | Active | inactive | 
27 | COc1ccc([C@]2(O)c3c(ccc4c3O[C@@](C)(CCC=C(C)C)C=C4)N(Cc3cccc(C(F)(F)F)c3)C(=O)[C@H]2OC)cc1 (racemic) | inactive |  |  |  | 
28 | COc1ccc([C@]2(O)c3c(ccc4c3O[C@@](C)(CCC=C(C)C)C=C4)N(Cc3cccc(C)c3)C(=O)[C@H]2OC)cc1 (racemic) | inactive |  |  |  | 
29 | COc1ccc([C@]2(O)c3c(ccc4c3O[C@@](C)(CCC=C(C)C)C=C4)N(Cc3cccc(C)n3)C(=O)[C@H]2OC)cc1 (racemic) | inactive | Active | Active | inactive | 
30 | COc1ccc([C@]2(O)c3c(ccc4c3O[C@@](C)(CCC=C(C)C)C=C4)N(Cc3cccc(F)c3)C(=O)[C@H]2OC)cc1 (racemic) | inactive | Active |  | inactive | 
31 | COc1ccc([C@]2(O)c3c(ccc4c3O[C@@](C)(CCC=C(C)C)C=C4)N(Cc3ccccc3Cl)C(=O)[C@H]2OC)cc1 (racemic) | inactive | Active |  | inactive | 
32 | COc1ccc([C@]2(O)c3c(ccc4c3O[C@](C)(CCC=C(C)C)C=C4)N(C)C(=O)[C@H]2OC)cc1 (racemic) | inactive | Active |  | inactive | 
33 | COc1ccc([C@]2(O)c3c(ccc4c3O[C@](C)(CCC=C(C)C)C=C4)N(Cc3ccc(Cl)cc3)C(=O)[C@H]2OC)cc1 (racemic) | inactive | Active |  | inactive | 
34 | COc1ccc([C@]2(O)c3c(ccc4c3O[C@](C)(CCC=C(C)C)C=C4)N(Cc3cccc(Br)c3)C(=O)[C@H]2OC)cc1 (racemic) |  | Active | Active | inactive | Activity (RAW264.7 [8]): Active
35 | COc1ccc([C@]2(O)c3c(ccc4c3O[C@](C)(CCC=C(C)C)C=C4)N(Cc3cccc(C(F)(F)F)c3)C(=O)[C@H]2OC)cc1 (racemic) | inactive | Active | Active | inactive | 
36 | COc1ccc([C@]2(O)c3c(ccc4c3O[C@](C)(CCC=C(C)C)C=C4)N(Cc3cccc(C)c3)C(=O)[C@H]2OC)cc1 (racemic) | inactive |  |  |  | 
37 | COc1ccc([C@]2(O)c3c(ccc4c3O[C@](C)(CCC=C(C)C)C=C4)N(Cc3cccc(C)n3)C(=O)[C@H]2OC)cc1 (racemic) | inactive |  |  |  | 
38 | COc1ccc([C@]2(O)c3c(ccc4c3O[C@](C)(CCC=C(C)C)C=C4)N(Cc3cccc(F)c3)C(=O)[C@H]2OC)cc1 (racemic) | inactive | Active | Active | inactive | 
39 | COc1ccc([C@]2(O)c3c(ccc4c3O[C@](C)(CCC=C(C)C)C=C4)N(Cc3ccccc3Cl)C(=O)[C@H]2OC)cc1 (racemic) | inactive |  |  |  | 
40 | COc1cccc([C@]2(O)c3c(ccc4c3O[C@@](C)(CCC=C(C)C)C=C4)NC(=O)[C@H]2OC)c1 (racemic) | inactive | Active |  | inactive | 
41 | COc1cccc([C@]2(O)c3c(ccc4c3O[C@](C)(CCC=C(C)C)C=C4)NC(=O)[C@H]2OC)c1 (racemic) | inactive | Active |  | inactive | 
42 | CO[C@@H]1C(=O)Nc2ccccc2[C@@]1(O)c1ccccc1 (relative stereo) |  |  |  |  | Activity (RAW264.7 [9]): Active; Activity (RAW264.7 [10]): Active; Activity (RAW264.7 [11]): Active; Activity (RAW264.7 [12]): inactive
43 | COc1cccc2c1[C@@](O)(c1ccccc1)[C@H](OC)C(=O)N2 (relative stereo) |  |  |  |  | Activity (RAW264.7 [9]): Active; Activity (RAW264.7 [10]): Active; Activity (RAW264.7 [11]): Active; Activity (RAW264.7 [12]): Active
